Reference: PubChem BioAssay AID218 (DTP/NCI, 2004)

Test system: C57BL/6 mice, Adenocarcinoma 755 sc, tumor weight T/C
Experiment: NCI In Vivo Anticancer Drug Screen. Data for tumor model Adenocarcinoma 755 (subcutaneous) in C57BL/6 mice
Details: endpoint: mean tumor weight, higher = larger tumour
Procedure: The antitumor activity of compounds was measured in mice bearing transplantable tumors. Survival or tumor size were measured and the results are expressed as the measurement made in the treated group (T) divided by the measurement made in the vehicle treated control group (C). The tumor model used in this assay is Adenocarcinoma 755 (subcutaneous) in C57BL/6 mice

[1] = dose: 75.0 mg/kg/injection, schedule: Q01DX011 (ip), vehicle: saline
[2] = dose: 150.0 mg/kg/injection, schedule: Q01DX011 (ip), vehicle: saline
[3] = dose: 50.0 mg/kg/injection, schedule: Q01DX011 (ip), vehicle: saline

O=c1[nH]c(=O)c2n[nH]nc2[nH]1
T/C [1]: 154 % of control | T/C [2]: 115 % of control

CS(=O)(=O)OCCCOS(C)(=O)=O
T/C (dose: 15.0 mg/kg/injection, schedule: Q01DX011 (ip), vehicle: methylcellulose (MC)): 83 % of control | T/C (dose: 30.0 mg/kg/injection, schedule: Q01DX011 (ip), vehicle: methylcellulose (MC)): 35 % of control

Nc1c(Br)cc2c(c1Br)Cc1cc([N+](=O)[O-])ccc1-2
T/C (dose: 31.3 mg/kg/injection, schedule: Q01DX011 (ip), vehicle: saline): 17 % of control | T/C (dose: 125.0 mg/kg/injection, schedule: Q01DX011 (ip), vehicle: saline): 17 % of control

C[C@@H]1CC2=CC(=O)C=C[C@]2(C)[C@H]2CC[C@@]3(C)[C@@H](CC[C@]3(C)O)[C@H]12
T/C (dose: 50.0 mg/kg/injection, schedule: Q01DX011 (sc), vehicle: steriod suspending solution): 70 % of control | T/C (dose: 100.0 mg/kg/injection, schedule: Q01DX011 (sc), vehicle: steriod suspending solution): 73 % of control | T/C (dose: 200.0 mg/kg/injection, schedule: Q01DX011 (sc), vehicle: steriod suspending solution): 58 % of control | T/C (dose: 400.0 mg/kg/injection, schedule: Q01DX011 (sc), vehicle: steriod suspending solution): 29 % of control

Cn1cnc2ncnc(Cl)c21
T/C (dose: 75.0 mg/kg/injection, schedule: Q01DX011 (ip), vehicle: carboxymethylcellulose (CMC)): 183 % of control

CN(Cc1cnc2nc(N)nc(N)c2n1)c1ccc(C(=O)N[C@@H](CCC(=O)O)C(=O)O)cc1
T/C (dose: 0.75 mg/kg/injection, schedule: Q01DX011 (ip), vehicle: saline): 74 % of control | T/C (dose: 1.0 mg/kg/injection, schedule: Q01DX011 (ip), vehicle: saline): 105 % of control | T/C (dose: 1.5 mg/kg/injection, schedule: Q01DX011 (ip), vehicle: saline): 45 % of control | T/C (dose: 2.0 mg/kg/injection, schedule: Q01DX011 (ip), vehicle: saline): 87 % of control

O=C(c1ccc(C(=O)N2CC2)cc1)N1CC1
T/C (dose: 12.5 mg/kg/injection, schedule: Q01DX011 (ip), vehicle: methylcellulose (MC)): 60 % of control | T/C (dose: 25.0 mg/kg/injection, schedule: Q01DX011 (ip), vehicle: methylcellulose (MC)): 53 % of control

CCC(C)N1C(=O)CCC1=O (stereo not given)
T/C (dose: 4.7 mg/kg/injection, schedule: Q01DX011 (ip), vehicle: saline): 102 % of control | T/C (dose: 9.4 mg/kg/injection, schedule: Q01DX011 (ip), vehicle: saline): 103 % of control | T/C (dose: 18.8 mg/kg/injection, schedule: Q01DX011 (ip), vehicle: saline): 123 % of control | T/C (dose: 37.5 mg/kg/injection, schedule: Q01DX011 (ip), vehicle: saline): 119 % of control | T/C [1]: 59 % of control | T/C [2]: 95 % of control

CCN(CC)c1ncnc2[nH]ncc12
T/C (dose: 40.0 mg/kg/injection, schedule: Q01DX011 (ip), vehicle: saline): 25 % of control | T/C [3]: 23 % of control

CCCNc1ncnc2[nH]ncc12
T/C (dose: 10.0 mg/kg/injection, schedule: Q01DX011 (ip), vehicle: saline): 62 % of control | T/C (dose: 15.0 mg/kg/injection, schedule: Q01DX011 (ip), vehicle: saline): 39 % of control

Cn1cnc([N+](=O)[O-])c1Sc1ccccc1
T/C (dose: 25.0 mg/kg/injection, schedule: Q01DX011 (ip), vehicle: saline): 84 % of control | T/C [3]: 47 % of control | T/C (dose: 100.0 mg/kg/injection, schedule: Q01DX011 (ip), vehicle: saline): 53 % of control

OCC1OC(n2cnc3c(=S)nc[nH]c32)C(O)C1O (stereo not given)
T/C (dose: 0.5 mg/kg/injection, schedule: Q01DX011 (ip), vehicle: carboxymethylcellulose (CMC)): 29 % of control | T/C (dose: 1.25 mg/kg/injection, schedule: Q01DX011 (ip), vehicle: carboxymethylcellulose (CMC)): 13 % of control | T/C (dose: 2.5 mg/kg/injection, schedule: Q01DX011 (ip), vehicle: carboxymethylcellulose (CMC)): 3 % of control | T/C (dose: 34.0 mg/kg/injection, schedule: Q01DX011 (ip), vehicle: saline): 2 % of control | T/C (dose: 320.0 mg/kg/injection, schedule: Q01DX001 (oral), vehicle: alkali diluted with saline): 10 % of control | T/C (dose: 320.0 mg/kg/injection, schedule: Q03DX004 (oral), vehicle: alkali diluted with saline): 2 % of control | T/C (dose: 320.0 mg/kg/injection, schedule: Q07DX002 (oral), vehicle: alkali diluted with saline): 5 % of control | T/C (dose: 480.0 mg/kg/injection, schedule: Q01DX001 (oral), vehicle: alkali diluted with saline): 12 % of control | T/C (dose: 480.0 mg/kg/injection, schedule: Q03DX004 (oral), vehicle: alkali diluted with saline): 6 % of control | T/C (dose: 480.0 mg/kg/injection, schedule: Q07DX002 (oral), vehicle: alkali diluted with saline): 5 % of control | T/C (dose: 640.0 mg/kg/injection, schedule: Q01DX001 (oral), vehicle: alkali diluted with saline): 68 % of control | T/C (dose: 640.0 mg/kg/injection, schedule: Q03DX004 (oral), vehicle: alkali diluted with saline): 1 % of control | T/C (dose: 640.0 mg/kg/injection, schedule: Q07DX002 (oral), vehicle: alkali diluted with saline): 32 % of control

NC(=S)N/N=C/c1cccc([N+](=O)[O-])c1
T/C (dose: 75.0 mg/kg/injection, schedule: Q02DX006 (ip), vehicle: saline): 36 % of control | T/C (dose: 100.0 mg/kg/injection, schedule: Q02DX006 (ip), vehicle: saline): 47 % of control
